Data taken from US8828696B2, “Use of Penicillin G Procaine as a selective antimicrobial agent in the production of alcohol by fermentation” (Lallemand Specialites, Inc, priority 2008, dated 2014).
Several values for one entry are separate records, joined by “and”; a condition that tells them apart may be missing. Equal values may be shown once.

How the values were obtained:
Assay type in all cases: cell-based
[1] = system: Saccharomyces cerevisiae yeast; assay: Laboratory fermentation trial: formation of alcohol and lactic acid (HPLC)
Procedure: A study was conducted to determine the degree of impact of the fermentation antimicrobial Penicillin G Procaine and Penicillin G potassium during alcohol production by fermentation. The antimicrobial impact was inferred by conducting a series of fermentations and measuring if the above said antibiotics interfered with the cell growth and the fermentation function of Saccharomyces cerevisiae yeast used in the fermentation phase. This study provided analysis of what impact, if any, the Penicillin G Procaine or Penicillin G Potassium has on the yeast during lab scale fermentations, specifically BioFerm® XR yeast from North American Bioproducts Corporation (NABC). This study observed the ability of yeast to replicate and ferment a corn mash substrate with and without the presence of Penicillin G Procaine or Penicillin G Potassium. This study was set up in a series of fermentation vessels. All antibiotic concentrations were tested in triplicate. Cell counts were done on one flask for each treatment at 12, 24, 36 and 48 hours and testing of the fermentation reactions by HPLC was also performed at 12, 24, 36 and 48 hours. The experiment was set as follows: 3. Fermentations were set up using 31% solids corn mash using saccharifying enzymes and the following procedure: A. Yeast Conditioning: • 1. Add 2 g yeast to 10 ml sterile water for each 3 flasks to test, (14 g yeast to 70 ml water) into a sterile 250 ml flask and place in water bath set to 100° F. • 2. Incubate at 100° F. for 30 minutes with occasional mixing. • 3. Remove flasks from water bath and divide suspension between the all flasks for the trial. B. Fermentation Procedure • 1. To prepared mash, add the following. • a. Add 0.58 g urea/liter mash and mix. • b. Add 0.2 ml GA per liter and mix. • 2. Remove sample for background HPLC testing. • 3. Add antibiotic solution to labeled sterile 250 ml flasks. • 4. Add hydrated yeast suspension to mash and mix well. • 5. Add sterile stir bar to each flask and add about 150 ml mash into each 250 ml flask for a total of 21 flasks. • 6. Cover each flask with a gas trap in a sterilized stopper. • 7. Place in a 33° C. water bath with continuous mixing at 280 rpm at 75% power. • 8. Remove sample at 12 hr interval to perform cell count, viability and budding. • 9. Incubate sample up to 48 hours, enough time for complete fermentation • 10. Collect samples at the following times for cell counts and HPLC testing: 12 hours; 24 hours; 36 hours and 48 hours The proper functioning of the yeast is often attributed to the higher efficiency with which it can convert the sugars formed in a fermentation process to the desired alcohol. Also the number of yeast cells in a fermentation mix is an important factor as it will be entropically favored to convert the available sugar molecules to ethanol and carbon dioxide. The sugar in the fermentation mix apart from being converted to ethanol is also used by the yeast for its metabolism and growth and by the concerned “industry normal” Lactobacillus fermentum bacteria converting the sugar to lactic acid.

Lactobacillus fermentum = assay: Comparative efficacy analysis Virginiamycin vs. Penicillin G Procaine, growth in MRS broth, 24 well plate; settings: industry isolated Lactobacillus fermentum; ppm of the fermentation mixture
Source text: The most commonly found microorganism in fuel ethanol producing plants is the Lactobacillus fermentum bacterium and is considered as an “industry normal” bacterium. This example compares the use of a Bactenix® line of products, Penicillin G Procaine-antibiotic versus Virginiamycin-antibiotic to control “industry normal” Lactobacillus fermentum bacterium. This trial uses an alcohol water mixture to assure total dissolving of antibiotics. This assures that the correct concentrations of antibiotics are going into the test wells and thereby preventing under dosing during the trial. All bacteria tested were industry specific isolates that were obtained from actual corn mash samples from fermentation alcohol production plants. The trial was set up as follows: • 1. Dissolve 0.1 g of each of the antibiotics in 1 ml water and then add 5 ml of ethanol, vortex and bring up to 10 ml with sterile water to from a suspension. • 2. Dilute the previous suspension 1:10 with sterile water. This gives a one mg/ml concentration. • 3. Filter the suspension by running through a 0.2 μm syringe filter. • 4. Add four μl broth in a centrifuge then add antibiotics to MRS (DeMan, Rogosa and Sharpe) broth at the concentrations required for the test. • 5. Take four μl of a fresh 24-hour culture of the target organisms and add to the corresponding empty wells in a pre-labeled 24 well tissue culture plate. • 6. Pipette one ml of the appropriate antibiotic media to each well of the plate. • 7. Incubate at 33° C. for 24 hours. • 8. Read plates for bacterial growth and re-incubate the plates at 33° C. • 9. After 48 hours read and report the final results.

contaminating bacteria = assay: Alcohol production plant trial, fermentor drop data (50 m/g/y dry grind, corn)
Procedure: This trial was conducted at a 50 million gallon per year (m/g/y) dry grind fuel alcohol production facility utilizing corn as a fermentation substrate. Batch yeast propagation and fermentation process were utilized. Antimicrobials were added to the fermentor during the fill cycle at approximately 30% fill.
No other changes were made to the process or chemical additions that would influence the fermentation kinetics monitored during 3 sets of fermentor batches listed below. The fermentation data was accumulated at the end (drop) of the fermentation process for each of the fermentors. Fermentation kinetics was measured for three batch cycles including:
Set 1—“Pre Penicillin G Procaine trial”-10 fermentor batches using a level of 0.5 ppm Virginiamycin. See results in Table 2.
Set 2—“Penicillin G Procaine trial”-10 fermentor batches using a level of 0.5 ppm of Penicillin G Procaine. See results in Table 3.
Set 3—“Post Penicillin G Procaine trial”-10 fermentor batches using a level of 0.5 ppm of Virginiamycin. See results in Table 4.

[2] = Penicillin G Procaine trial 0.5 ppm compared with Virginiamycin sets
[3] = Set 2 'Penicillin G Procaine trial', 0.5 ppm, 10 Batch average
[4] = Set 2 'Penicillin G Procaine trial', 0.5 ppm, drop data, single fermentor batch

Row | SMILES | % Lactic Acid ([1]; 5 ppm, 12 hours) [%] | % wt EtOH ([1]; 5 ppm, 12 hours) [% wt] | % Lactic Acid ([1]; 5 ppm, 24 hours) [%] | % wt EtOH ([1]; 5 ppm, 24 hours) [% wt] | % Lactic Acid ([1]; 5 ppm, 36 hours) [%] | % wt EtOH ([1]; 5 ppm, 36 hours) [% wt] | % Lactic Acid ([1]; 5 ppm, 48 hours) [%] | % wt EtOH ([1]; 5 ppm, 48 hours) [% wt] | % Lactic Acid ([1]; 15 ppm, 12 hours) [%] | % wt EtOH ([1]; 15 ppm, 12 hours) [% wt] | % Lactic Acid ([1]; 15 ppm, 24 hours) [%] | % wt EtOH ([1]; 15 ppm, 24 hours) [% wt] | % Lactic Acid ([1]; 15 ppm, 36 hours) [%] | % wt EtOH ([1]; 15 ppm, 36 hours) [% wt] | % Lactic Acid ([1]; 15 ppm, 48 hours) [%] | % wt EtOH ([1]; 15 ppm, 48 hours) [% wt] | % Lactic Acid ([1]; 30 ppm, 12 hours) [%] | % wt EtOH ([1]; 30 ppm, 12 hours) [% wt] | % Lactic Acid ([1]; 30 ppm, 24 hours) [%] | % wt EtOH ([1]; 30 ppm, 24 hours) [% wt] | also measured
1 | CC1(C)S[C@@H]2[C@H](NC(=O)Cc3ccccc3)C(=O)N2[C@H]1C(=O)[O-].[K+] [Penicillin G Potassium] | 0.083 | 6.16 | 0.100 | 9.12 | 0.108 | 11.12 | 0.104 | 11.89 | 0.081 | 6.05 | 0.100 | 9.15 | 0.105 | 11.05 | 0.100 | 11.92 | 0.082 | 6.07 | 0.096 | 9.13 | % Lactic Acid ([1]; 30 ppm, 36 hours): 0.106%; % wt EtOH ([1]; 30 ppm, 36 hours): 11.12 % wt; % Lactic Acid ([1]; 30 ppm, 48 hours): 0.101%; % wt EtOH ([1]; 30 ppm, 48 hours): 11.83 % wt
2 | CC1(C)S[C@@H]2[C@H](NC(=O)Cc3ccccc3)C(=O)N2[C@H]1C(=O)O.CCN(CC)CCOC(=O)c1ccc(N)cc1 [Penicillin G Procaine] | 0.082 | 6.21 | 0.098 | 9.24 | 0.108 | 11.14 | 0.104 | 11.94 | 0.085 | 6.16 | 0.099 | 9.13 | 0.106 | 11.13 | 0.099 | 11.98 | 0.081 | 6.34 | 0.098 | 9.16 | minimum inhibitory concentration (Lactobacillus fermentum): 0.1 ppm; decrease of lactic acid production (contaminating bacteria; [2]): about a quarter percent; increase of ethanol production (contaminating bacteria; [2]): about half a percent; production increase of ethanol per fermentor (contaminating bacteria; [2]): about 2,500 gallons; Acetic % (contaminating bacteria; [3]): 0.03%; EtOH v/v % (contaminating bacteria; [3]): 15.98 v/v %; Glucose % (contaminating bacteria; [3]): 0.28%; Lactic % (contaminating bacteria; [3]): 0.24%; Acetic % (contaminating bacteria; [4]): 0.03% and 0.02% and 0.05% and 0.04%; Glucose % (contaminating bacteria; [4]): 0.28% and 0.30% and 0.27% and 0.29%; Lactic % (contaminating bacteria; [4]): 0.28% and 0.19% and 0.21% and 0.26% and 0.25% and 0.23% and 0.24%; % Lactic Acid ([1]; 30 ppm, 36 hours): 0.103%; % wt EtOH ([1]; 30 ppm, 36 hours): 11.18 % wt; % Lactic Acid ([1]; 30 ppm, 48 hours): 0.100%; % wt EtOH ([1]; 30 ppm, 48 hours): 11.91 % wt
